Measured values reported in BindingDB's records for doi:10.1021/jm00159a032 (1986).

Target: Thymidylate synthase (Streptococcus faecium)
Assay: Inhibitory activity against thymidylate synthase of Streptococcus faecium

Structure (SMILES): C#CN(Cc1ccc2nc(N)[nH]c(=O)c2c1)c1ccc(C(=O)NC(CCC(=O)NC(CCC(=O)NC(CCC(=O)O)C(=O)O)C(=O)O)C(=O)O)cc1 (stereo unspecified) [4-[4-(4-{4-[(2-Amino-4-hydroxy-quinazolin-6-ylmethyl)-ethynyl-amino]-benzoylamino}-4-carboxy-butyrylamino)-4-carboxy-butyrylamino]-4-carboxy-butyric acid anion]
- IC50: 5.5 nM
